Reference: US7754759B2, “Arylsulfonyl chromans as 5-HT6 inhibitors” (Roche Palo Alto LLC, priority 2005, dated 2010)
Structures can show the parent of a compound that is named as a salt.

What was measured:
[1] = biological target: T1, recombinant human 5-HT2A receptor (Homo sapiens, UniProt P28223); experiment: Radioligand binding, [3H]Ketanserin competition at 5-HT2A receptor; settings: membranes of CHO-K1 cells expressing recombinant human 5-HT2A receptor, 32° C., read-out: pKi for the 5-HT2A receptor (converted)
T1 construct: expressed in transfected cells
T1 sequence (P28223 whole entry): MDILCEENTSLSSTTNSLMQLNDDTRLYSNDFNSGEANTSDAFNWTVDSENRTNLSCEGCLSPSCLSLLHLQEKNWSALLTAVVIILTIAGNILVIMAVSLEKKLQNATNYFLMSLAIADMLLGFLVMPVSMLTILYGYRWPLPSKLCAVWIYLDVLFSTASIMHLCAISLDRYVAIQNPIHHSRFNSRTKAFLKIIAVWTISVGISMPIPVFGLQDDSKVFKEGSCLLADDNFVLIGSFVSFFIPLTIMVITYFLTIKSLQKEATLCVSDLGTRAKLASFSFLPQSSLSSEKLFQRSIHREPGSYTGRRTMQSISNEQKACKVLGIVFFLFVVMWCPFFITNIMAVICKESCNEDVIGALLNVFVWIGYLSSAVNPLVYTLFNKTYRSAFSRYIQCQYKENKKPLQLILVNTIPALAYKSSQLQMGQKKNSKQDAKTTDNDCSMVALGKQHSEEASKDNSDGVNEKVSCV
Description: (§1) The binding activity of compounds of this invention in vitro was determined as follows. Duplicate determinations of 5-HT6 ligand affinity were made by competing for binding of [^3H]LSD in cell membranes derived from HEK293 cells stably expressing recombinant human 5-HT6 receptor. Duplicate determinations of 5-HT2A ligand affinity were made by competing for binding of [^3H]Ketanserin (3-(2-(4-(4-fluorobenzoyl)piperidinol)ethyl)-2,4(1H,3H)-quinazolinedione) in cell membranes derived from CHO-K1 cells stably expressing recombinant human 5-HT2A receptor. Membranes were prepared from HEK 293 cell lines by the method described by Monsma et al., Molecular Pharmacology, Vol. 43 pp. 320-327 (1993), and from CHO-K1 cell lines as described by Bonhaus et al., Br J Pharmacol. June; 115(4):622-8 (1995).
(§2) For estimation of affinity at the 5-HT6 receptor, all determinations were made in assay buffer containing 50 mM Tris-HCl, 10 mM MgSO4, 0.5 mM EDTA, 1 mM ascorbic acid, pH 7.4 at 37° C., in a 250 microliter reaction volume. […]
(§3) Assay tubes containing [^3H] […] LSD or [^3H]Ketanserin were determined as radioactive counts per minute using Packard TopCount.
(§4) Displacement of [^3H]LSD or [^3H]Ketanserin from the binding sites was quantified by fitting concentration-binding data to a 4-parameter logistic equation: […]

[2] = biological target: T2, recombinant human 5-HT6 receptor (Homo sapiens, UniProt P50406); experiment: Radioligand binding, [3H]LSD competition at 5-HT6 receptor; settings: membranes of HEK293 cells expressing recombinant human 5-HT6 receptor, 37° C., read-out: pKi for the 5-HT6 receptor (converted)
T2 construct: expressed in transfected cells
T2 sequence (P50406 whole entry): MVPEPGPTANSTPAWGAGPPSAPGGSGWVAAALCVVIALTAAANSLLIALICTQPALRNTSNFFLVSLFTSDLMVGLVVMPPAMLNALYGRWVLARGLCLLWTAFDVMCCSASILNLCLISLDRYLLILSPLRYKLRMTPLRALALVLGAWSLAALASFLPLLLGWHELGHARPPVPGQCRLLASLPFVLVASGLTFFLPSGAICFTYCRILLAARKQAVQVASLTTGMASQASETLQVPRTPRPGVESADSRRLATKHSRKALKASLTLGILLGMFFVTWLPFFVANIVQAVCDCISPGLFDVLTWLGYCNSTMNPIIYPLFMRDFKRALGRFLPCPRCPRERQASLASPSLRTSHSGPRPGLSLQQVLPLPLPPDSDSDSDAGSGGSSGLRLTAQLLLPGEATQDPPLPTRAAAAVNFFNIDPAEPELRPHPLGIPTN
Description: as §1, §2, §3, §4

melting point [°C] | Ki [1] [nM] | Ki [2] [nM] | Compound
163.9 to 165.3 | – | – | CNCC1CC(C)(O)c2ccc(S(=O)(=O)c3ccccc3)cc2O1 (centres unmarked) (as salt: trifluoroacetate) [Compound 4, 7-Benzenesulfonyl-4-methyl-2-methylaminomethyl-chroman-4-ol]
– | ~56.2 | ~0.1 | CNC[C@@H]1CCc2ccc(S(=O)(=O)c3ccccc3)cc2O1 [Compound 7, (S)-(7-Benzenesulfonyl-chroman-2-ylmethyl)-methyl-amine]
157.8 to 189.6 | – | – | CNCC1CC(=O)c2ccc(S(=O)(=O)c3ccccc3)cc2O1 (centres unmarked) (as salt: TFA) [Compound 1, 7-Benzenesulfonyl-2-methylaminomethyl-chroman-4-one]
129.5 to 131.5 | – | – | C[C@H](O)C(=O)NC[C@H]1CCc2ccc(S(=O)(=O)c3ccccc3)cc2O1 (stereo in doubt) [Compound 30, (R)-N-(7-Benzenesulfonyl-chroman-2-ylmethyl)-2-hydroxy-propionamide]
259 to 261 | – | – | CNC[C@H]1CCc2ccc(S(=O)(=O)c3cccc(F)c3)cc2O1 [Compound 35, (R)-[7-(3-Fluoro-benzenesulfonyl)-chroman-2-ylmethyl]-methyl-amine]
257.1 to 258.9 | – | – | NC[C@H]1CCc2ccc(S(=O)(=O)c3cccc(F)c3)cc2O1 [Compound 46, (R)-C-[7-(3-Fluoro-benzenesulfonyl)-chroman-2-yl]-methylamine]
196.2 to 198.2 | – | – | CNCC1CCc2ccc(S(=O)(=O)c3ccccc3)cc2O1 (centres unmarked) (as salt: TFA) [Compound 3, (7-Benzenesulfonyl-chroman-2-ylmethyl)-methyl-amine]
